Data taken from article PMC10564794, “Safety and tolerability of oral vorolanib for neovascular (wet) age-related macular degeneration: a phase I, open-label study” (Eye, 2023).
“Also recorded” adds a separate entry of the source. Where two headings read alike, the source gives them in different places.

Legend:
[1] = test system: human umbilical vein endothelial cells stimulated with rHuVEGF165; design: method as in PMID 33610563; conditions: HUVEC stimulated with rHuVEGF165; cited from earlier work
[2] = Pharmacokinetics of vorolanib after single and multiple dosing; assay type: in vivo, human; conditions: for half-life / Cmax / Tmax / AUC / Vd/F / AUC(0-t): human, plasma, oral; for Tmax: median (range); for Vd/F: read-out: Vz/F (apparent volume of distribution); for AUC(0-t): read-out: AUC0-24h
Description: In the initial PK evaluation after a single dose, blood samples from participants in the 25 mg group were collected predose (−0.5 h) and at 0.5, 1, 2, 3, 4, 6, 8, 12, 16, 24, 36, and 48 h post-dose; blood samples from participants in the 50 mg and 75 mg groups were collected predose (−0.5 h) and at 0.5, 1, 2, 3, 4, 6, 8, 12, 16, 24, 36, 48, and 72 h post-dose. During continuous dosing, blood in the 50 mg group was obtained on Day 7, Day 14 and Day 21 predose and on Day 30 predose and at 0.5, 1, 2, 3, 4, 6, 8, 12, 16 and 24 h post-dose, while blood in the 75 mg group was obtained on Day 7, Day 14 and Day 21 predose and on Day 30 predose and at 0.5, 1, 2, 3, 4, 6, 8, 12, 16, 24, 36, 48, and 72 h post-dose. The multiple dose data for 25 mg were not collected.
All participants moved from single dosing to multiple daily dosing.

[3] = test system: participants with nAMD; assay: Phase I safety and tolerability of oral vorolanib (adverse events, DLT, MTD); assay type: in vivo; conditions: for Dose-limiting toxicities (DLT): dose escalation
Description: This phase I, open-label study consisting of dose escalation and dose expansion was conducted at 6 Chinese sites (NCT02452385 and CTR20150152). This study was approved by the local institutional review board at each participating site and conducted in accordance with the Declaration of Helsinki. All participants provided written informed consent.
The schedule of procedures is shown in Table S1 in the Supplementary Material. In the dose escalation, participants in each group were assigned to receive ascending doses of vorolanib (25, 50, 75 and 100 mg daily). The dose escalated to the next level in the absence of more than two of eight patients with dose-limiting toxicity (DLT), which was defined as a drug-related safety event during the first cycle (30 days) of treatment that was severe enough to require removal of the participant from the study. The maximum tolerated dose (MTD) was defined as the maximum dose at which no more than two of eight DLTs occurred in the group.
AEs were determined by the investigator per the Common Terminology Criteria for Adverse Events version 4.0.

[4] = test system: study eyes of participants with nAMD; assay: Efficacy: change from baseline in BCVA (ETDRS), CST and CNV characteristics; assay type: in vivo, human
Description: The efficacy outcomes included changes from baseline in mean BCVA based on ETDRS, central subfield thickness (CST), and CNV characteristics. CST was confirmed by a […] (Heidelberg Engineering, Heidelberg, Germany) at screening, Day 14, and Day 30; then monthly for the next 6 months; and then every 3 months until the end of treatment. FA was performed by a Heidelberg retina tomograph (Heidelberg Engineering) with an Ophthavision Imaging System (MRP Group, Boston, MA) capture station at the screening, Day 90, Day 180, Day 270 and Day 360 visits.
Because this was a phase I study, no power calculation was performed to determine sample size. All participants who had received at least one dose of vorolanib were included in the safety assessment. All participants who completed the course of vorolanib treatment were included for efficacy assessment. All participants who had received at least one dose of vorolanib and who had PK data were included in the PK analysis. Descriptive statistics were used for analyses. For quantitative data, the means ± standard deviations were selected. All statistical analyses were performed with SAS software, v. 9.4 (SAS Institute Inc., Cary, NC, USA).

[5] = test system: Caucasian participants with nAMD; conditions: cited from earlier work
[6] = test system: CNV rat model; design: method as in PMID 29201457; conditions: oral administration; cited from earlier work
[7] = test system: oxygen-induced retinopathy mice; design: method as in PMID 33610563; conditions: cited from earlier work
[8] = test system: participants with advanced cancer; design: method as in PMID 33707933; conditions: US participants with advanced cancer, once daily; cited from earlier work
[9] = continuous dose administration, 50 to 75 mg
[10] = multiple doses 50 mg daily, n = 8, arithmetic mean (%CV)
[11] = multiple doses 75 mg daily, n = 8, arithmetic mean (%CV)

## Cc1[nH]c(/C=C2\C(=O)Nc3ccc(F)cc32)c(C)c1C(=O)N[C@H]1CCN(C(=O)N(C)C)C1 [vorolanib, Vorolanib]
[1]
  Antiangiogenic effects: highly antiangiogenic effects
[2]; [9]
  Accumulation: no obvious accumulation
  Time to steady-state concentration: 4 days
[2]; doses of 25–50 mg after a single dose
  Dose dependence of maximum blood concentration and area under the curve: increased linearly in a dose-dependent manner
[2]; 25 mg, single dose 25 mg, n = 8, arithmetic mean (%CV)
  half-life: 5.9 h
[2]; 25 mg, single dose 25 mg, n = 8, arithmetic mean (%CV), read-out: Cmax
  Cmax: 140 ng/mL
[2]; 25 mg, single dose 25 mg, n = 8, read-out: Tmax
  Tmax: 3.03 h
[2]; 50 mg, multiple doses 50 mg daily, n = 8, arithmetic mean (%CV)
  half-life: 4.9 h
[2]; 50 mg, multiple doses 50 mg daily, n = 8, arithmetic mean (%CV), read-out: Cmax,ss
  Cmax: 246 ng/mL
[2]; 50 mg, multiple doses 50 mg daily, n = 8, read-out: Tmax,ss
  Tmax: 5.03 h
[2]; 50 mg, single dose 50 mg, n = 8, arithmetic mean (%CV)
  half-life: 10.7 h
[2]; 50 mg, single dose 50 mg, n = 8, arithmetic mean (%CV), read-out: Cmax
  Cmax: 201 ng/mL
[2]; 50 mg, single dose 50 mg, n = 8, read-out: Tmax
  Tmax: 6 h
[2]; 75 mg, multiple doses 75 mg daily, n = 8, arithmetic mean (%CV)
  half-life: 7.3 h
[2]; 75 mg, multiple doses 75 mg daily, n = 8, arithmetic mean (%CV), read-out: Cmax,ss
  Cmax: 269 ng/mL
[2]; 75 mg, multiple doses 75 mg daily, n = 8, read-out: Tmax,ss
  Tmax: 4 h
[2]; 75 mg, single dose 75 mg, n = 8, arithmetic mean (%CV)
  half-life: 10.3 h
[2]; 75 mg, single dose 75 mg, n = 8, arithmetic mean (%CV), read-out: Cmax
  Cmax: 237 ng/mL
[2]; 75 mg, single dose 75 mg, n = 8, read-out: Tmax
  Tmax: 4 h
[2]; single dosing, 25–75 mg cohorts, approximately
  half-life: 5.9 to 10.7 h
[2]; [10]
  AUC: 2180 ng·h/mL
  Vd/F: 180 L
  CLss/F (apparent oral clearance): 26.2 (40.1) L/h
  Rac (accumulation ratio based on AUCss): 1.30 (31.3)
[2]; [11]
  AUC: 1950 ng·h/mL
  Vd/F: 436 L
  CLss/F (apparent oral clearance): 42.4 (32.7) L/h
  Rac (accumulation ratio based on AUCss): 1.20 (36.2)
[2]; single dose 25 mg, n = 8, arithmetic mean (%CV)
  AUC(0-t): 1010 ng·h/mL
[2]; single dose 50 mg, n = 8, arithmetic mean (%CV)
  AUC(0-t): 1730 ng·h/mL
[2]; single dose 75 mg, n = 8, arithmetic mean (%CV)
  AUC(0-t): 1700 ng·h/mL
[2]; preliminary PK results, unpublished data
  AUC in Chinese people versus Americans: relatively higher AUC in Chinese people than in Americans
[3]; 25 mg, N = 16
  TRAE: Elevated ALT: 3 (18.8%) number of participants (%)
  TRAE: Elevated AST: 3 (18.8%) number of participants (%)
  TRAE: Elevated blood pressure: 4 (25.0%) number of participants (%)
  TRAE: Hair colour changes: 0 number of participants (%)
  TRAE: Leucopenia: 1 (6.3%) number of participants (%)
  TRAE: Neutropenia: 1 (6.3%) number of participants (%)
  TRAE: QT interval prolongation: 2 (12.5%) number of participants (%)
  TRAE: Thrombocytopenia: 2 (12.5%) number of participants (%)
[3]; 50 mg, N = 16
  TRAE: Elevated ALT: 9 (56.3%) number of participants (%)
  TRAE: Elevated AST: 8 (50.0%) number of participants (%)
  TRAE: Elevated blood pressure: 6 (37.5%) number of participants (%)
  TRAE: Hair colour changes: 4 (25.0%) number of participants (%)
  TRAE: Leucopenia: 3 (18.8%) number of participants (%)
  TRAE: Neutropenia: 3 (18.8%) number of participants (%)
  TRAE: QT interval prolongation: 4 (25.0%) number of participants (%)
  TRAE: Thrombocytopenia: 1 (6.3%) number of participants (%)
[3]; 75 mg cohort
  Dose-limiting toxicities (DLT): one
[3]; 75 mg, N = 8
  TRAE: Elevated ALT: 5 (62.5%) number of participants (%)
  TRAE: Elevated AST: 4 (50.0%) number of participants (%)
  TRAE: Elevated blood pressure: 3 (37.5%) number of participants (%)
  TRAE: Hair colour changes: 2 (25.0%) number of participants (%)
  TRAE: Leucopenia: 3 (37.5%) number of participants (%)
  TRAE: Neutropenia: 2 (25.0%) number of participants (%)
  TRAE: QT interval prolongation: 1 (12.5%) number of participants (%)
  TRAE: Thrombocytopenia: 3 (37.5%) number of participants (%)
[3]; 100 mg cohort
  Dose-limiting toxicities (DLT): one
[3]; 100 mg, N = 1
  TRAE: Elevated blood pressure: 0 number of participants (%)
  TRAE: Hair colour changes: 0 number of participants (%)
  TRAE: Leucopenia: 0 number of participants (%)
  TRAE: Neutropenia: 0 number of participants (%)
  TRAE: QT interval prolongation: 0 number of participants (%)
  TRAE: Thrombocytopenia: 0 number of participants (%)
[3]; 6 of 41 participants
  Drug-related AEs leading to drug discontinuation: 14.6%
[3]; all cohorts
  Fatal TRAEs: No fatal TRAEs
  Ocular TRAEs: no ocular TRAEs occurred
[3]; all cohorts, N = 41
  Participants with at least one AE: 39 (95.1%) participants (%)
  Participants with grade 3 or higher TRAEs: 12 (29.3%) participants (%)
  Participants with treatment-related adverse events (TRAEs): 33 (80.5%) participants (%)
[3]; all participants
  Elevated alanine aminotransferase (most common nonocular TRAE): 41.5%
[3]; dose escalation 25–100 mg daily
  Dose-limiting toxicities (DLTs), total: two
[3]; oral 25–100 mg daily
  Maximum tolerated dose: not reached
[4]; 25 mg cohort, N 16
  Mean Change from Baseline to day 180 CST: −11.7 μm
  Mean Change from Baseline to day 360 BCVA: +4.3 letters
  Mean Change from Baseline to day 360 CST: −27.0 μm
[4]; 50 mg cohort, N 16
  Mean Change from Baseline to day 180 CST: −85.0 μm
  Mean Change from Baseline to day 360 BCVA: +8.5 letters
  Mean Change from Baseline to day 360 CST: −54.8 μm
[4]; 75 mg cohort, N 8
  Mean Change from Baseline to day 180 CST: −33.0 μm
  Mean Change from Baseline to day 360 BCVA: +12.0 letters
  Mean Change from Baseline to day 360 CST: −45.5 μm
[4]; 41 participants, baseline to Day 360, range −3.8–0.2
  Mean decrease in CNV area: −0.9 mm^2
[4]; 41 participants, baseline to Day 360, range −4.8–0.5
  Mean decrease in lesion area: −1.3 mm^2
[4]; 41 participants, baseline to Day 360, range −10.8–0.2
  Mean decrease in CNV leakage: −4.0 mm^2
[4]; 75.6% of participants who continued follow-up one month after vorolanib treatment
  Mean BCVA improvement at follow-up after treatment: 2.6 letters
[4]; Day 360
  Participants evaluable at Day 360 who maintained or improved vision: 12 (29.3%) participants (%)
[4]; accompanying decline in CNV leakage
  Reduced CNV area: 37.4%
[4]; all cohorts, N 41
  Mean Change from Baseline to day 180 CST: −48.6 μm
[4]; all cohorts, N 41, range −258–40
  Mean Change from Baseline to day 360 CST: −44.0 μm
[4]; by Day 180, all participants
  Mean reduction in CST: 48.6 μm
[5]; 4 of 35 participants, none related to vorolanib
  Participants with ocular AEs: 11.4%
[5]; 4 serious AEs in 3 participants, none attributed to vorolanib
  Participants with serious AEs: 8.6%
[5]; at 24 weeks
  Mean BCVA change: +3.8 letters
[5]
  Deaths or DLTs: no deaths or DLTs
[5]; number of events
  Systemic AEs: 94
[5]; of 94 systemic AEs
  Vorolanib-related systemic AEs: 32
[5]; participants that completed 24 weeks
  Mean reduction in CST: 50 μm
[6]
  CNV lesion area and pathological neovascularization: strongly repressed CNV; also recorded: reduced the CNV lesion area and pathological neovascularization
[7]
  Retinal neovascularization and avascular area in the retina: markedly inhibited
[8]
  Recommended dose of vorolanib monotherapy: 400 mg
